In patent US5206241A, “Labdanes and process for their preparation” (Hoechst Aktiengesellschaft, priority 1990, dated 1993):
In brackets after ≈: the same amount, converted by molar mass. Structures can show the parent of a compound that is named as a salt.

Key:
Guinea pig atrium = experiment: Positive inotropic activity, electrically stimulated isolated guinea pig atrium; conditions: contractility of isolated atrium, Ringer's solution, 32° C., recorded 7 to 10 minutes; for EC50: Cavia porcellus
Description: Guinea pigs of both sexes and weighing 400 g are sacrificed, and the heart is removed and placed in Ringer's solution at room temperature. Both the left and the right atria are then isolated, fixed in an organ holder and placed in a bath containing Ringer's solution and maintained at a temperature of 32° C. A mixture of 95% O2 and 5% CO2 is bubbled through the organ bath. Electrical stimulation of the atrium is then carried out. A compound according to the invention is dissolved in water to give a solution of known concentration and is added to the bath. The contractility of the atrium is recorded for 7 to 10 minutes via an […] strain gage on a Nihon Kohden 4-channel pen recorder. The activity is expressed on the basis of the resulting data as the EC50.
Data for compounds disclosed in Indian Patent No. 163 242 are also provided for comparison.

[1] = system: intraocular pressure (IOP) in conscious rabbits; experiment: Measurement of the intraocular pressure in conscious rabbits; format: in vivo, rabbit; conditions: 2% solution, 100 μl into one eye; for IOP-Lowering Effect, % decrease in IOP: Schioetz tonometer, relative to initial value; for IOP-Lowering Effect, Duration: unit of duration not given
Description: For this experiment rabbits of both sexes and weighin 2 to 3 kg are used. The intraocular pressure (IOP) is measured with a Schioetz tonometer after corneal anaesthesia with a 2% novocaine solution. A 2% solution of a compound according to the invention is prepared, using the stoichiometric amount of 0.1N HCl, by dissolving it or its salt directly in water. After the initial value has been determined, 100 μl of the solution of the test compound are […] into one of the eyes, and the vehicle is instilled into the other eye. The IOP is measured at defined time intervals, i.e. 0.5, 1, 2, 3, 4 and 5 hours. The percentage decreases in the IOP is calculated using the initial value.

| Compound | EC50 (Guinea pig atrium) [µg/mL] | IOP-Lowering Effect, % decrease in IOP [1] | IOP-Lowering Effect, Duration [1] | also measured |
| --- | --- | --- | --- | --- |
| C=C[C@@]1(C)CC(=O)[C@]2(O)[C@@]3(C)[C@@H](O)CCC(C)(C)[C@@H]3[C@H](OC(=O)CN3CCCCC3)[C@H](O)[C@@]2(C)O1 [drawing 36, reference compound] | 1.8 (≈ 3.65 µM) |  |  |  |
| C=C[C@@]1(C)CC(=O)[C@]2(O)[C@@]3(C)[C@@H](O)CCC(C)(C)[C@@H]3[C@H](OC(=O)CCN(C)C)[C@H](OC(=O)COC)[C@@]2(C)O1 [CO(CH2)2 N(CH3)2.2HCl, COCH2 OCH3, 1α,9α-Dihydroxy-6β-(3-N,N-dimethylamino-propionyloxy)-8,13-epoxy-7β-methoxy-acetoxy-labd-14-en-11-one] | 0.024 |  |  |  |
| C=C[C@@]1(C)CC(=O)[C@]2(O)[C@@]3(C)[C@@H](O)CCC(C)(C)[C@@H]3[C@H](OC(=O)CN3CCCCC3)[C@H](O)[C@@]2(C)O1 [drawing 41, reference compound] |  | Not active |  |  |
| C=C[C@@]1(C)CC(=O)[C@]2(O)[C@@]3(C)[C@@H](O)CCC(C)(C)[C@@H]3[C@H](OC(=O)CCN3CCCCC3)[C@H](OC(=O)COc3ccccc3)[C@@]2(C)O1 |  | 31% | 300 |  |
| C=C[C@@]1(C)CC(=O)[C@]2(O)[C@@]3(C)[C@@H](O)CCC(C)(C)[C@@H]3[C@H](OC(=O)CCN3CCOCC3)[C@H](OC(=O)COCC)[C@@]2(C)O1 [drawing 39] |  | 31% | > 360 |  |
| C=C[C@@]1(C)CC(=O)[C@]2(O)[C@@]3(C)[C@@H](O)CCC(C)(C)[C@@H]3[C@H](OC(=O)CCN3CCOCC3)[C@H](OC(=O)COCC)[C@@]2(C)O1 [drawing 34] | 0.044 (≈ 0.0739 µM) |  |  |  |
| C=C[C@@]1(C)CC(=O)[C@]2(O)[C@@]3(C)[C@@H](O)CCC(C)(C)[C@@H]3[C@H](OC(=O)CCN3CCOCC3)[C@H](O)[C@@]2(C)O1 [reference compound] |  |  |  | Guinea pig atrium EC50 (Guinea pig atrium): Not active |
| C=C[C@@]1(C)CC(=O)[C@]2(O)[C@@]3(C)[C@@H](O)CCC(C)(C)[C@@H]3[C@H](OC(=O)CCN3CCN(C)CC3)[C@H](OC(=O)COCC)[C@@]2(C)O1 |  | 32% | > 360 |  |
| C=C[C@@]1(C)CC(=O)[C@]2(O)[C@@]3(C)[C@@H](O)CCC(C)(C)[C@@H]3[C@H](OC(=O)COC)[C@H](OC(=O)CCN(C)C)[C@@]2(C)O1 [COCH2 OCH3, CO(CH2)2 NMe2.HCl, 1α,9α-Dihydroxy-7β-(3-N,N-dimethylamino-propionyloxy)-8,13-epoxy-6β-methoxyacetoxy-labd-14-en-11-one] | 0.77 |  |  |  |
